Patent publication US20230150924A1, “NOVEL COMPOUND HAVING CANCER METASTASIS INHIBITORY ACTIVITY, PREPARATION METHOD THEREFOR, AND PHARMACEUTICAL COMPOSITION FOR INHIBITING CANCER METASTASIS AND INVASION OR TREATING COLORECTAL CANCER, COMPRISING COMPOUND” (CELLGENTEK CO., LTD., priority 2019, published 2023)

How the values were obtained:
[1] = tested on: invasion of colorectal cancer cells; assay: In vivo relative invation (invasion; EV and KITENIN controls, no method described); conditions: relative to EV (=1); KIT = KITENIN
[2] = tested on: KAI1 promoter; assay: KAI1 promoter luciferase reporter assay in transfected Caco2 cells; assay type: cell-based, human; conditions: 1 μM compound, 16 hours, transfected Caco2 cells, luciferase activity relative to DMSO control (=1); for fold induction at 1 µM: Homo sapiens, Caco-2, 16 h, read-out: Relative KAI promoter activity

Structure (SMILES)	In vivo relative invation [1]	fold induction at 1 µM [2]	Relative KAI promoter activity [2]
O=C(CNC(=O)c1ccccc1OC1CCN(S(=O)(=O)c2ccccc2)CC1)c1ccccc1 [Example 187, N-(2-oxo-2-phenylethyl)-2-((1-(phenylsulfonyl)piperidin-4-yl)oxy)benzamide]	1.235	1.03	
CCN(Cc1ccc(C(=O)NCC(=O)c2ccccc2)cc1)c1ccccc1 [Example 263, 4-((ethyl(phenyl)amino)methyl)-N-(2-oxo-2-phenylethyl)benzamide]	1.301	2.23	
O=C(CNS(=O)(=O)c1ccc(F)cc1)c1ccccc1 [Example 26, 4-fluoro-N-(2-oxo-2-phenylethyl)benzenesulfonamide]	1.063	1.26	
COc1ccc(S(=O)(=O)NCC(=O)c2ccc(N(C)C)cc2)cc1 [Example 111, N-(2-(4-(dimethylamino)phenyl)-2-oxoethyl)-4-methoxybenzenesulfonamide]	1.065	1.44	
COc1cccc(C(=O)CNC(=O)c2cccc(CN3CCc4ccccc4C3)c2)c1 [Example 279, 3-((3,4-dihydroisoquinolin-2(1H)-yl)methyl)-N-(2-(3-methoxyphenyl)-2-oxoethyl)benzamide]	1.187	2.28	
CCCCN(CC)Cc1cccc(C(=O)NCC(=O)c2ccccc2)c1 [Example 249, 3-((butyl(ethyl)amino)methyl)-N-(2-oxo-2-phenylethyl)benzamide]	1.113	1.35	
CN(CCO)Cc1ccc(C(=O)NCC(=O)c2ccccc2)cc1 [Example 267, 4-(((2-hydroxyethyl) (methyl)amino)methyl)-N-(2-oxo-2-phenylethyl)benzamide]	0.9046	3.56	
CCCCN(CCO)Cc1cccc(C(=O)NCC(=O)c2ccccc2)c1 [Example 244, 3-((butyl (2-hydroxyethyl)amino)methyl)-N-(2-oxo-2-phenylethyl)benzamide]	1.1	1.51	
O=C(CNS(=O)(=O)c1ccc(F)cc1)c1ccc(Cl)cc1 [Example 67, N-(2-(4-chlorophenyl)-2-oxoethyl)-4-fluorobenzenesulfonamide]	1.175	0.87	
CN(C)c1ccc(C(=O)CNS(=O)(=O)c2ccccc2)cc1 [Example 109, N-(2-(4-(dimethylamino)phenyl)-2-oxoethyl)benzenesulfonamide]	0.9054	2.89	
C=CCN(CC=C)Cc1cccc(C(=O)NCC(=O)c2ccccc2)c1 [Example 241, 3-((diallylamino)methyl)-N-(2-oxo-2-phenylethyl)benzamide]	1.126	1.1	
O=C(CNC(=O)c1ccccc1OC1CCN(S(=O)(=O)c2cccc([S](=O)=O)c2)CC1)c1ccccc1 [Example 175, 2-((1-((3-(dioxo-15-sulfanyl)phenyl)sulfonyl)piperidin-4-yl)oxy)-N-(2-oxo-2-phenylethyl)benzamide]	1.149		0.97
COc1ccc(C(=O)NCC(=O)c2ccc(Cl)cc2)cc1 [Example 52, N-(2-(4-chlorophenyl)-2-oxoethyl)-4-methoxybenzamide]	1.158	1.36	
O=C(CNC(=O)c1cccc(CN2CCN(c3ccccn3)CC2)c1)c1ccccc1 [Example 240, N-(2-oxo-2-phenylethyl)-3-((4-(pyridin-2-yl)piperazin-1-yl)methyl)benzamide]	1.1	1.3	
Cc1ccccc1C(=O)NCC(=O)c1cccnc1 [Example 135, 2-methyl-N-(2-oxo-2-(pyridin-3-yl)ethyl)benzamide]	1.485	1.3	
O=C(CNC(=O)c1ccc(F)c(F)c1)c1ccc(Cl)cc1 [Example 78, N-(2-(4-chlorophenyl)-2-oxoethyl)-3,4ifluorobenzamide]	1.17	0.9	
O=C(CNC(=O)c1ccccc1OC1CCN(S(=O)(=O)c2ccc(F)cc2)CC1)c1ccccc1 [Example 184, 2-((1-((4-fluorophenyl)sulfonyl)piperidin-4-yl)oxy)-N-(2-oxo-2-phenylethyl)benzamide]	1.114	0.98	
O=C(CNC(=O)c1ccccc1OC1CCN(C(=O)c2ccc(F)c(F)c2)CC1)c1ccccc1 [Example 196, 2-((1-(3,4-difluorobenzoyl)piperidin-4-yl)oxy)-N-(2-oxo-2-phenylethyl)benzamide]	1.113	0.84	
CC(Oc1ccccc1)C(=O)N1CCC(Oc2ccccc2C(=O)NCC(=O)c2ccccc2)CC1 (stereo not drawn) [Example 152, N-(2-oxo-2-phenylethyl)-2-((1-(2-phenoxypropanoyl)piperidin-4-yl)oxy)benzamide]	1.16	1.08	
O=C(CNC(=O)c1ccccc1OC1CCN(C(=O)N2CCOCC2)CC1)c1ccccc1 [Example 171, 2-((1-(morpholine-4-carbonyl)piperidin-4-yl)oxy)-N-(2-oxo-2-phenylethyl)benzamide]	1.191	1.07	

Structure (SMILES)	In vivo relative invation [1]	fold induction at 1 µM [2]	Relative KAI promoter activity [2]
Cc1ccccc1NC(=O)COc1ccccc1C(=O)NCC(=O)c1ccccc1 [Example 202, 2-(2-oxo-2-(o-toylamino)ethoxy)-N-(2-oxo-2-phenylethyl)benzamide]	1.138	1.31	
O=C(CNC(=O)c1ccccc1Cl)c1ccc(N2CCOCC2)cc1 [Example 138, 2-chloro-N-(2-(4-morpholinophenyl)-2-oxoethyl)benzamide]	1.258	1.15	
CC(C)(C)CC(=O)NCC(=O)c1ccc(Cl)cc1 [Example 60, N-(2-(4-chlorophenyl)-2-oxoethyl)-3,3-dimethylbutanamide]	0.9713	0.81	
O=C(CNC(=O)c1ccccc1OC1CCN(S(=O)(=O)Cc2ccccc2)CC1)c1ccccc1 [Example 188, 2-((1-(benzylsulfonyl)piperidin-4-yl)oxy)-N-(2-oxo-2-phenylethyl)benzamide]	1.123	0.92	
O=C(CNC(=O)C1CCCCC1)c1ccccc1 [Example 15, N-(2-oxo-2-phenylethyl)cyclohexanecarboxamide]	1.17	1.74	
O=C(CNC(=O)c1cccc(CN2CCOCC2)c1)c1ccccc1 [Example 252, 3-(morpholinomethyl)-N-(2-oxo-2-phenylethyl)benzamide]	1.165	1.56	
CCCCCN(CCCCC)Cc1cccc(C(=O)NCC(=O)c2cccc(OC)c2)c1 [Example 291, 3-((dipentylamino)methyl)-N-(2-(3-methoxyphenyl)-2-oxoethyl)benzamide]	1.126	1.62	
CCCc1ccc(NC(=O)COc2ccccc2C(=O)NCC(=O)c2ccccc2)cc1 [Example 213, 2-(2-oxo-2-((4-propylphenyl)amino)ethoxy)-N-(2-oxo-2-phenylethyl)benzamide]	1.209	1.14	
COc1ccc(C(=O)NCC(=O)c2ccc(N(C)C)cc2)cc1 [Example 104, N-(2-(4-(dimethylamino)phenyl)-2-oxoethyl)-4-methoxybenzamide]	1.115		1.78
O=C(CNC(=O)c1ccccc1OC1CCN(C(=O)c2ccccc2F)CC1)c1ccccc1 [Example 153, 2-((1-(2-fluorobenzoyl)piperidin-4-yl)oxy)-N-(2-oxo-2-phenylethyl)benzamide]	1.095	1.05	
O=C(CNC(=O)c1ccccc1OC1CCN(C(=O)c2ccc(F)cc2Cl)CC1)c1ccccc1 [Example 194, 2-((1-(2-chloro-4-fluorobenzoyl)piperidin-4-yl)oxy)-N-(2-oxo-2-phenylethyl)benzamide]	1.259	1.01	
Cc1ccccc1C(=O)NCC(=O)c1ccc(N(C)C)cc1 [Example 96, N-(2-(4-(dimethylamino)phenyl)-2-oxoethyl)-2-methylbenzamide]	1.141	2.23	
O=C(CNC(=O)c1ccc(CN2CCc3ccccc3C2)cc1)c1ccccc1 [Example 254, 4-((3,4-dihydroisoquinolin-2(1H)-yl)methyl)-N-(2-oxo-2-phenylethyl)benzamide]	0.9143	2.08	
O=C(COc1ccccc1C(=O)NCC(=O)c1ccccc1)NCc1ccc2c(c1)OCO2 [Example 212]	1.219	1.01	
COCc1ccccc1C(=O)NCC(=O)c1ccc(Cl)cc1 [Example 59, N-(2-(4-chlorophenyl)-2-oxoethyl)-2-(methoxymethyl)benzamide]	1.007	1.56	
COc1ccc(S(=O)(=O)N2CCC(Oc3ccccc3C(=O)NCC(=O)c3ccccc3)CC2)cc1 [Example 189, 2-((1-((4-methoxyphenyl)sulfonyl)piperidin-4-yl)oxy)-N-(2-oxo-2-phenylethyl)benzamide]	1.185	0.9	
O=C(CNC(=O)c1ccc(OC(F)(F)F)cc1)c1ccccc1 [Example 38, N-(2-oxo-2-phenylethyl)-4-(trifluoromethoxy)benzamide]	1.119	1.57	
C=CC(=O)NCC(=O)c1ccc(Cl)cc1 [Example 50, N-(2-(4-chlorophenyl)-2-oxoethyl)acrylamide]	1.089	0.94	
CCC(=O)NCC(=O)c1ccccc1 [Example 14, N-(2-oxo-2-phenylethyl)propionamide]	0.9106	1.02	
